Assay results as given in ChEMBL document CHEMBL4619789, “RAF Kinases in Cancer: A Moving Target and Degradation Therapy” (ACS Med Chem Lett, 2020).

Assays:
A-375 = assay: Protac activity at E3 ubiquitin-protein ligase/B-raf V600E mutant in human A375 cells assessed as induction of B-raf V600E degradation measured after 72 hrs by Western cellular assay relative to control; assay type: cell-based
[1] = Protac activity at E3 ubiquitin-protein ligase/B-raf V600E mutant in human A375 cells assessed as induction of B-raf V600E degradation measured after 72 hrs by Western cellular assay; assay type: cell-based; conditions: A-375, 72 h

With `O=C1CCC(N2Cc3cc(CCCN4CCC5(C4)CN(c4ccc(-c6cnc7[nH]cc(C(=O)c8c(F)ccc(NS(=O)(=O)N9CC[C@@H](F)C9)c8F)c7c6)cc4)C5)ccc3C2=O)C(=O)N1` (some centres undefined) the %max (A-375) was < 70% and the DC50 [1] was < 10 nM.
In the case of `Cc1ncsc1-c1ccc([C@H](C)NC(=O)[C@@H]2C[C@@H](O)CN2C(=O)[C@@H](NC(=O)CN2CCC(CN3CCN(c4ccc(-c5cnc6[nH]cc(C(=O)c7c(F)ccc(NS(=O)(=O)N8CC[C@@H](F)C8)c7F)c6c5)cc4)CC3)CC2)C(C)(C)C)cc1`, the %max (A-375) is reported as > 70% and the DC50 [1] is reported as < 10 nM.
For `O=C1CCC(N2Cc3cc(N4CC[C@@H](N5CCN(c6ccc(-c7cnc8[nH]cc(C(=O)c9c(F)ccc(NS(=O)(=O)N%10CC[C@@H](F)C%10)c9F)c8c7)cc6)CC5)C4)ccc3C2=O)C(=O)N1` (some centres undefined), the %max (A-375) was < 70% and the DC50 [1] was < 10 nM.
For `Cc1ncsc1-c1ccc(CNC(=O)[C@@H]2C[C@@H](O)CN2C(=O)[C@@H](c2cc(OCCN3CCN(c4ccc(-c5cnc6[nH]cc(C(=O)c7c(F)ccc(NS(=O)(=O)N8CC[C@@H](F)C8)c7F)c6c5)cc4)CC3)no2)C(C)C)cc1`, the %max (A-375) was > 70% and the DC50 [1] was < 10 nM.
With `O=C1CCC(N2Cc3cc(N4CC(N5CCN(c6ccc(-c7cnc8[nH]cc(C(=O)c9c(F)ccc(NS(=O)(=O)N%10CC[C@@H](F)C%10)c9F)c8c7)cc6)CC5)C4)ccc3C2=O)C(=O)N1` (some centres undefined) the %max (A-375) was < 70% and the DC50 [1] was < 10 nM.
For `Cc1ncsc1-c1ccc(CNC(=O)[C@@H]2C[C@@H](O)CN2C(=O)[C@@H](NC(=O)CN2CCN(CC3CCN(c4ccc(-c5cnc6[nH]cc(C(=O)c7c(F)ccc(NS(=O)(=O)N8CC[C@@H](F)C8)c7F)c6c5)cc4)CC3)CC2)C(C)(C)C)cc1`, the %max (A-375) was > 70% and the DC50 [1] was < 10 nM.
With `O=C1CCC(N2Cc3cc(/C=C/CN4CCN(c5ccc(-c6cnc7[nH]cc(C(=O)c8c(F)ccc(NS(=O)(=O)N9CC[C@@H](F)C9)c8F)c7c6)cc5)CC4)ccc3C2=O)C(=O)N1` (some centres undefined) the %max (A-375) was < 70% and the DC50 [1] was < 10 nM.
For `Cc1ncsc1-c1ccc(CNC(=O)[C@@H]2C[C@@H](O)CN2C(=O)[C@@H](NC(=O)CN2CCC(CN3CCN(c4ccc(-c5cnc6[nH]cc(C(=O)c7c(F)ccc(NS(=O)(=O)N8CC[C@@H](F)C8)c7F)c6c5)cc4)CC3)CC2)C(C)(C)C)cc1`, the %max (A-375) was > 70% and the DC50 [1] was < 10 nM.
With `O=C1CCC(N2Cc3cc(N4CCN(Cc5ccc(-c6cnc7[nH]cc(C(=O)c8c(F)ccc(NS(=O)(=O)N9CC[C@@H](F)C9)c8F)c7c6)cc5)CC4)ccc3C2=O)C(=O)N1` (some centres undefined) the %max (A-375) was > 70% and the DC50 [1] was < 10 nM.
In the case of `Cc1ncsc1-c1ccc([C@H](CO)NC(=O)[C@@H]2C[C@@H](O)CN2C(=O)[C@@H](c2cc(N3CCC(N4CCN(c5ccc(-c6cnc7[nH]cc(C(=O)c8c(F)ccc(NS(=O)(=O)N9CC[C@@H](F)C9)c8F)c7c6)cc5)CC4)CC3)no2)C(C)C)cc1`, the %max (A-375) is reported as > 70% and the DC50 [1] is reported as 10 to 50 nM.
In the case of `O=C1CCC(N2Cc3cc(N4CC(OCC5CCN(c6ccc(-c7cnc8[nH]cc(C(=O)c9c(F)ccc(NS(=O)(=O)N%10CC[C@@H](F)C%10)c9F)c8c7)cc6)CC5)C4)ccc3C2=O)C(=O)N1` (some centres undefined), the %max (A-375) is reported as < 70% and the DC50 [1] is reported as < 10 nM.
With `Cc1ncsc1-c1ccc(CNC(=O)[C@@H]2C[C@@H](O)CN2C(=O)[C@@H](NC(=O)CN2CC(N3CCN(c4ccc(-c5cnc6[nH]cc(C(=O)c7c(F)ccc(NS(=O)(=O)N8CC[C@@H](F)C8)c7F)c6c5)cc4)CC3)C2)C(C)(C)C)cc1` the %max (A-375) was > 70% and the DC50 [1] was < 10 nM.
